Earlier results, collected in PMC8554823 (ACS Central Science, 2021).

Target: human granzyme B (Homo sapiens, UniProt P10144)
Conditions: previously reported value for IEPD alone

Chain of human granzyme B (P10144 21-247): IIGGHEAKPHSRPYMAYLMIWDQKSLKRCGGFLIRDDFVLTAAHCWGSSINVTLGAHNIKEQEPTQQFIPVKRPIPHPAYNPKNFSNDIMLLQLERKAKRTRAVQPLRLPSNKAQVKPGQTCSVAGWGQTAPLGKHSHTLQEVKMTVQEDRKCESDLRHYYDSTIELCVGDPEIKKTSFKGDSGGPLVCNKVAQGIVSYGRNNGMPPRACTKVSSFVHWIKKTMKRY

IEPD
catalytic efficiency (kcat/Km): ~3300 M^–1 s^–1
